# According to patent US8507219B2, “Method of treating inflammation with statins” (MUSC Foundation for Research Development, priority 1997, dated 2013):
# Entries after “also recorded” stand apart in the source; their conditions may differ. Where two headings read alike, the source gives them in different places.
# Legend:
# [1] = test system: ceramide production in rat primary astrocytes; experiment: Degradation of sphingomyelin to ceramide (DAG kinase assay, HPTLC) in rat primary astrocytes; assay type: cell-based
# Procedure: Lipid extraction Approximately 1.0×10^6 cells were exposed to different cytokines in the presence or absence of antioxidants for different periods and lipids were extracted according to the methods described by Welsh (1996).
# Quantification of sphingomyelin by HPTLC and densitometry Sphingomyelin was separated from total lipid extracts by HPTLC (LPK-plates from Whatman Labsales, USA) as described (Ganser et al., 1988) for phospholipids with the modification, that the plate was overrun for 30 min during its development and was dried overnight in vacuum desicator. Sphingomyelin was quantitated by densitometric scanning using Imaging Densitometer (Model GS-670; Bio-Rad, USA) and software provided with the instrument by the manufacturer.
# Quantification of ceramide levels by diacylglycerol kinase assay Ceramide content was quantified essentially according to Priess et al. using diacylglycerol (DAG) kinase and [γ-^32P]ATP (Priess et al., 1986). Briefly, dried lipids were solubilized in 20 μl of an octyl β-D-glucoside/cardiolipin solution (7.5% octyl β-D-glucoside, 5 mM cardiolipin in 1 mM DTPA) by sonication in a sonicator bath. […] The labeled ceramide 1-phosphate was resolved with a solvent system consisting of methyl acetate: n-propanol:chloroform:methanol:0.25% KCl in water:acetic-acid (100:100:100:40:36:2). A standard sample of ceramide was phosphorylated under identical conditions and developed in parallel. […] Quantification of ceramide 1-phosphate was carried out by autoradiography and densitometric scanning using Imaging Densitometer (Model GS-670; Bio-Rad, USA). Values are expressed either as arbitrary units (absorbance) or as percent change.
# Lipid Extraction Approximately 1.0×10^6 cells were exposed to different cytokines in the presence or absence of antioxidants for different periods, and lipids were extracted according to the methods described by Welsh (1996).
# Quantification of Sphingomyelin by High Performance TLC and Densitometry Sphingomyelin was separated from total lipid extracts by high performance TLC (LHPK plates from Whatman) as described by Ganser et al. (1988) for phospholipids with the following modification: the plate was overrun for 30 min during its development and was dried overnight in vacuum desiccator. Sphingomyelin was quantitated by densitometric scanning using Imaging Densitometer (model GS-670; Bio-Rad), and software was provided with the instrument by the manufacturer.
# Quantification of Ceramide Levels by Diacylglycerol Kinase Assay Ceramide content was quantified essentially according to Priess et al. (1986) using diacylglycerol (DAG) kinase and [γ-^32P]ATP. Briefly, dried lipids were solubilized in 20 μl of an octyl β-D-glucoside/cardiolipin solution (7.5% octyl β-D-glucoside, 5 mM cardiolipin in 1 mM DTPA) by sonication in a sonicator bath. […] The labeled ceramide-1-phosphate was resolved with a solvent system consisting of methyl acetate:n-propyl alcohol:chloroform:methanol, 0.25% KCl in water:acetic acid (100:100:100:40:36:2). A standard sample of ceramide was phosphorylated under identical conditions and developed in parallel. […] Quantification of ceramide-1-phosphate was carried out by autoradiography and densitometric scanning using Imaging Densitometer (model GS-670; Bio-Rad). Values are expressed either as arbitrary units (absorbance) or as percent change.
# iNOS = experiment: Expression of iNOS protein (immunoblot) and mRNA (Northern) in rat primary astrocytes; assay type: cell-based
# Procedure: (§1) Immunoblot analysis for iNOS Following 24 h incubation in the presence or absence of stimuli by different cytokines or LPS, macrophages were scraped off, washed with Hank's buffer, and homogenized in 50 mM Tris-HCl (pH 7.4) containing protease inhibitors (1 nM PMSF, 5 μg/ml aprotinin, 5 μg/ml pepstatin A, and 5 μg/ml leupeptin). After electrophoresis the proteins were transferred onto a nitrocellulose membrane, and the iNOS band was visualized by immunoblotting with antibodies against mouse macrophage iNOS and [^125I]-labeled protein A (Singh et al., 1988).
# RNA isolation, Northern blot analysis, and reverse-transcriptase coupled polymerase chain reaction (RT-PCR) Stimulated peritoneal macrophages were taken out from culture dishes directly by adding Ultraspec-II RNA reagent (Biotecx Laboratories Inc.) and total RNA was isolated according to the manufacturer's protocol. For northern blot analyses, 20 μg of total RNA was electrophoresed on 1.2% denaturing formaldehyde-agarose gels, electrotransferred to Hybond-Nylon Membrane (Amersham) and hybridized at 68° C. with ^32P-labeled cDNA probe using Express Hyb hybridization solution (Clontech) as described by the manufacturer. […]; After hybridization filters were washed two to three times in solution I (2×SSC, 0.05% SDS) for 1 h at room temperature followed by solution II (0.1×SSC, 0.1% SDS) at 50° C. for another hour. The membranes were then dried and exposed to X-ray film (Kodak). The same filters were stripped and rehybridized with probes for GAPDH. The relative mRNA content for iNOS was measured after scanning the bands with a Biorad (Model GS-670) imaging densitometer.
# as §1, with “of” for “of stimuli by”, “stimuli, cells” for “cytokines or LPS, macrophages”, “inhibitors.” for “inhibitors (1 nM PMSF, 5 μg/ml aprotinin, 5 μg/ml pepstatin A, and 5 μg/ml leupeptin).”, “A.” for “A (Singh et al., 1988).”
# RNA isolation and Northern blot analysis Cells were taken out from culture dishes directly by adding Ultraspec-II RNA reagent (Biotecx Laboratories Inc.) and total RNA was isolated according to the manufacturer's protocol. For Northern blot analyses, 20 μg of total RNA was electrophoresed on 1.2% denaturing formaldehyde-agarose gels, electrotransferred to Hybond-Nylon Membrane (Amersham) and hybridized at 68° C. with ^32P-labeled cDNA probe using Express Hyb hybridization solution (Clontech) as described by the manufacturer. […]; After hybridization filters were washed two or three times in solution I (2×SSC, 0.05% SDS) for one hour at room temperature followed by solution II (0.1×SSC, 0.1% SDS) at 50° C. for another hour. The membranes were then dried and exposed with X-ray films (Kodak). The same filters were stripped and rehybridized with probes for GAPDH. The relative mRNA content for iNOS was measured after scanning the bands with a Biorad (Model GS-670) imaging densitometer.
# as §1, with “After a” for “Following”, “of” for “of stimuli by”, “stimuli, cells” for “cytokines or LPS, macrophages”, “mM” for “nM”, “A.” for “A (Singh et al., 1988).”
# RNA isolation and Northern blot analysis Cells were taken out from culture dishes directly by adding Ultraspec-II RNA reagent (Biotecx Laboratories Inc., Houston, Tex.), and total RNA was isolated according to the manufacturer's protocol. […]
# [2] = test system: NO production in rat resident macrophages; experiment: LPS-/cytokine-induced NO production (nitrite) in rat resident peritoneal macrophages; assay type: cell-based
# Procedure: Isolation of Rat Macrophages and Induction of NO Production Resident macrophages were obtained from rats by peritoneal lavage with sterile RPMI 1640 medium containing 1% fetal bovine serum and 100 μg/ml gentamicin (Wang et al., 1995). Cells were washed three times with RPMI 1640 at 4° C. All cell cultures were maintained at 37° C. in a humidified incubator containing 5% CO2 in air. Macrophages, at a concentration of 2×10^6/ml in RPMI 1640 medium containing L-glutamine and gentamicin, were added in volumes of 800 μl to a 35 mm plate. After 1 h, nonadherent cells were removed by washing and 800 μl of serum-free RPMI 1640 medium with various stimuli were added to the adherent cells. After 24 h incubation in 5% CO2 in air at 37° C., the culture supernatants were transferred to measure NO production (Geng et al., 1995; Wang et al., 1995).
# Isolation of rat macrophages and induction of NO production Resident macrophages were obtained from rat by peritoneal lavage with sterile RPMI 1640 medium containing 1% fetal bovine serum and 100 μg/ml gentamicin as described herein. Cells were washed three times with RPMI 1640 at 4° C. All cell cultures were maintained at 37° C. in a humidified incubator containing 5% CO2 in air. Macrophages at a concentration of 2×10^6/ml in RPMI 1640 medium containing L-glutamine and gentamicin were added in volumes of 800 μl to a 35 mm plate. After 1 h, nonadherent cells were removed by washing and 800 μl of serum-free RPMI 1640 medium with various stimuli were added to the adherent cells. After incubation in 5% CO2 in air at 37° C., culture supernatants were transferred to measure NO production.
# Isolation of rat macrophages and induction of NO production Resident macrophages were obtained from rat by peritoneal lavage with sterile RPMI 1640 medium containing 1% FBS and 100 μg/ml gentamicin. Cells were washed three times with RPMI 1640 at 4° C., and were maintained at 37° C. in a humidified incubator containing 5% CO2 in air. Macrophages at a concentration of […] in RPMI 1640 medium containing L-glutamine and gentamicin were added in volumes of 800 μl to a 35-mm plate. After 1 h, nonadherent cells were removed by washing, and 800 μl of serum-free RPMI 1640 medium with various stimuli was added to the adherent cells. After 24 h the culture supernatants were transferred to measure NO production.
# Protein was measured (Bradford, 1976).
# [3] = test system: cultured skin fibroblasts of X-ALD; experiment: β-oxidation of lignoceric acid in cultured skin fibroblasts of X-ALD; assay type: cell-based, human; details: etomoxir, inhibitor of mitochondrial β-oxidation
# [4] = 100 μM mevalonate, 200 μM farnesyl pyrophosphate, 10 μM ubiquinone or cholesterol
compound,measurement,setting,value
CC(=O)O [acetate],degradation of sphingomyelin to ceramide / ceramide production,[1],had no effect on the degradation of SM to ceramide
"Nc1nc[nH]n1 [ATZ, aminotriazole]",increase in ceramide production,[1],more than 5 fold
COC1=C(OC)C(=O)C(C/C=C(\C)CC/C=C(\C)CC/C=C(\C)CC/C=C(\C)CC/C=C(\C)CC/C=C(\C)CC/C=C(\C)CC/C=C(\C)CC/C=C(\C)CCC=C(C)C)=C(C)C1=O [ubiquinone],rescue of the inhibition of iNOS expression and NF-kβ activation by lovastatin / NaPA,iNOS; [4],did not prevent the inhibitory effect of lovastatin and NaPA
Microcystin,LPS-mediated induction of iNOS protein and mRNA,iNOS,enhanced the LPS-mediated induction of iNOS protein and mRNA
CC(O)(CCO)CC(=O)O (centres unmarked) [mevalonate],rescue of the inhibition of iNOS expression and NF-kβ activation by lovastatin / NaPA,iNOS,substantially reversed the inhibitory effect of lovastatin
"CNC(=N)NCCC[C@H](N)C(=O)O [L-NMA, N^G-methyl-L-arginine]",Nitrite,"[2]; LPS 1.0 μg/ml, 24 h, NAC 20 mM 2 h before LPS, NMA 0.1 mM, arginase 100 units/ml with LPS",15.8 ± 2.2 nmol/mg Protein^24h
same,Inhibition (%),"[2]; of LPS (1.0 μg/ml)-induced nitrite, NAC 20 mM 2 h before, NMA 0.1 mM, arginase 100 units/ml with LPS",87%
"CCCCS(=N)(=O)CCC(N)C(=O)O [buthione (S,R)-sulfoximine]",degradation of sphingomyelin to ceramide / ceramide production,[1],also decreased the level of GSH and induced the production of ceramide
CC(C)CCC[C@@H](C)[C@H]1CC[C@H]2[C@@H]3CC=C4C[C@@H](O)CC[C@]4(C)[C@H]3CC[C@]12C [cholesterol],rescue of the inhibition of iNOS expression and NF-kβ activation by lovastatin / NaPA,iNOS; [4],did not prevent the inhibitory effect of lovastatin and NaPA
C[C@@]12C(=O)OC(=O)[C@]1(C)[C@H]1CC[C@@H]2O1 [cantharidin],LPS-mediated induction of iNOS protein and mRNA,iNOS; LPS 1.0 μg/ml,enhanced the LPS-mediated induction of iNOS protein and mRNA
same,LPS-induced NO production,"[2]; LPS 1.0 μg/ml, 24 h",inhibited the LPS-induced NO production in rat peritoneal macrophages
CCOC(=O)[C@@]1(CCCCCCOc2ccc(Cl)cc2)CO1 [Etomoxir],effect on stimulated lignoceric acid β-oxidation,[3],had no effect on cAMP-mediated stimulation of lignoceric acid β-oxidation; also recorded: had no effect on lovastatin- or NaPA-mediated stimulation of lignoceric acid β-oxidation
"OO [H2O2, hydrogen peroxide]",increase in ceramide production,[1],about 7 fold
"CC(C)=CCC/C(C)=C/CC/C(C)=C/COP(=O)(O)OP(=O)(O)O [FPP, farnesyl pyrophosphate]",rescue of the inhibition of iNOS expression and NF-kβ activation by lovastatin / NaPA,iNOS,substantially reversed the inhibitory effect of lovastatin
